Tests used:
Type in all cases: physicochemical
[1] = water solubility of the crystalline solid; settings: pH 7.0 (phosphate buffer), 37° C., after 30 minutes
[2] = hygroscicity by dynamic vapor sorption; settings: transitioned from 5% to 95% relative humidity
Description: Dynamic vapor sorption was performed using a Q5000SA. The sample (5-15 mg) was loaded into a metallic quartz sample pan, suspended from a microbalance, and exposed to a humidified stream of nitrogen gas. Weight changes were relative to a matching empty reference pan opposite the sample, suspended from the microbalance. The sample was held for a minimum of 10 min at each humidity level and only progressed to the next humidity level if there was <0.002% change in weight between measurements (interval: 5 s) or 45 min had elapsed (for 5-65% RH) or 2 hours had elapsed (for 80 and 95% RH). The following program was used: • 1. Equilibration at 50% RH • 2. 50% to 5% (50%, 35%, 20%, and 5%) • 3. 5% to 95% (5%, 20%, 35%, 50%, 65%, 80%, and 95%) • 4. 95% to 5% (95%, 80%, 65%, 50%, 35%, 20%, and 5%) • 5. 5% to 50% (5%, 20%, 35%, and 50%).
The crystalline solid was analyzed for hygroscopicity.

[3] = accelerated stability study (75% relative humidity, 40° C., one week); settings: one week at 75% relative humidity
Description: An accelerated stability study was conducted on the crystalline solid. Approximately 10 mg of crystalline solid was placed into a 4 mL vial, and the vial was covered with a Kimwipe. The vial was stored for one week inside a stability chamber producing a relative humidity of 75% at 40° C.

Substance	water solubility (mg/mL of the free base (S)-1-((R)-3-amino-1-(...)piperidin-3-yl)-2,2-difluoroethan-1-ol) [1] [mg/mL]	increase in weight by dynamic vapor sorption [2] [%]	change of crystalline form by XRPD after the stability study [3]	HPLC purity after the stability study ([3]; 99.59 area percent before the study) [area percent]
p-Toluenesulfonic Acid Salt of (S)-1-((R)-3-amino-1-(4-((6-amino-9H-purin-9-yl)methyl)-6-(2,5-difluoro-4-methoxyphenyl)pyridin-3-yl)piperidin-3-yl)-2,2-difluoroethan-1-ol [Example 3]	1.61			
Maleic Acid Salt of (S)-1-((R)-3-amino-1-(4-((6-amino-9H-purin-9-yl)methyl)-6-(2,5-difluoro-4-methoxyphenyl)pyridin-3-yl)piperidin-3-yl)-2,2-difluoroethan-1-ol [Example 1]		0.507	no change of the crystalline form	99.56

Reference: patent US20260152502A1, “PIPERIDINYL-METHYL-PURINE AMINE SALTS, CRYSTALLINE FORMS, AND THEIR USE IN TREATING MEDICAL DISEASES AND CONDITIONS” (K36 THERAPEUTICS, INC., priority 2022, published 2026)
